One block for each compound: values may come before it.
Legend:
Format in all cases: physicochemical
[1] = Polymorphic form conversion: Form I slurried in various solvents, recovered solid analyzed using XRPD
From the text: (§1) X-ray powder diffraction patterns for each sample were obtained on a Scintag XDS 2000 or a Scintag X2 θ/θ diffractometer operating with copper radiation at 45 kV and 40 mA using a Kevex Psi Peltier-cooled silicon detector or a Thermo ARL Peltier-cooled solid state detector. Source slits of 2 or 4 mm and detector slits of 0.5 or 0.3 mm were used for data collection. Recrystallized material was gently milled using an agate mortar and pestle for approximately one minute. Samples were placed in a stainless steel or silicon sample holder and leveled using a glass microscope slide. Powder diffraction patterns of the samples were obtained from 2 to 42° 2θ at 1°/minute. Calibration of the X2 diffractometer is verified annually using a silicon powder standard.
Form I of 5-azacytidine was added to various solvents in sufficient quantities to form a slurry, and the slurry allowed to equilibrate for a period of time. The solid material that was present in the slurry was recovered, dried, and analyzed using XRPD (according to the XRPD protocol included in Example 5) with the aim of detecting new polymorphs and pseudopolymorphs during the transition to the dissolved state.

[2] = Polymorphic form conversion of other forms slurried in water, solid analyzed using XRPD; details: approximate 25 mg/mL, equilibrated 15 minutes
From the text: as §1

[3] = Dehydration of Form III by heating; TGA water content and XRPD
From the text: as §1
Thermogravimetric Analysis (TGA) measurements for each sample were collected using a Perkin Elmer TGA 7 purged with nitrogen at approximately 20 cc/minute. A 100-mg standard weight and nickel metal were used to verify balance and temperature calibrations, respectively. Samples were heated from 25° C. to 250° C. or 300° C. at 10° C./minute.
5-azacytidine Form III was heated at 105° C. for 4 hours in an attempt to dehydrate the material. […] TGA was used to measure the water content of Form III before and after drying.

XRPD Pattern Assignment ([1]; slurry equilibrated 19 hours in 5% Dextrose): Form III
XRPD Pattern Assignment ([1]; slurry equilibrated 19 hours in 5% Tween 80): Form III
XRPD Pattern Assignment ([1]; slurry equilibrated 19 hours in 50/50 EtOH/DI Water): Form III
XRPD Pattern Assignment ([1]; slurry equilibrated 19 hours in Acetone): Form I
XRPD Pattern Assignment ([1]; slurry equilibrated 19 hours in DI Water): Form III
XRPD Pattern Assignment ([1]; slurry equilibrated 19 hours in DMSO): Amorphous
XRPD Pattern Assignment ([1]; slurry equilibrated 19 hours in Ethyl alcohol): Form I
XRPD Pattern Assignment ([1]; slurry equilibrated 19 hours in Methyl ethyl ketone): Form I
XRPD Pattern Assignment ([1]; slurry equilibrated 19 hours in Normal Saline): Form III
XRPD Pattern Assignment ([1]; slurry equilibrated 19 hours in Polyethylene glycol): Amorphous
XRPD Pattern Assignment ([1]; slurry equilibrated 19 hours in Propylene glycol): Amorphous
XRPD Pattern Assignment ([1]; slurry equilibrated 19 hours in Water-saturated Octanol): Form III
SMILES: Nc1ncn([C@@H]2O[C@H](CO)[C@@H](O)[C@H]2O)c(=O)n1 [Form I, 5-azacytidine]

form observed by XRPD after slurry in water [2]: Form III
SMILES: Nc1ncn([C@@H]2O[C@H](CO)[C@@H](O)[C@H]2O)c(=O)n1 [Form I/II mixed phase, 5-azacytidine]

amount of moisture (TGA) ([3]; after drying at 105° C. for 4 hours): < 0.1%
XRPD powder pattern after dehydration ([3]; heated at 105° C. for 4 hours): matches that of Form I
amount of moisture (TGA) ([3]; initial, before drying): 6.31%
SMILES: Nc1ncn([C@@H]2O[C@H](CO)[C@@H](O)[C@H]2O)c(=O)n1 [Form III, 5-azacytidine]

Reference: patent publication US8614313B2, “Pharmaceutical compositions comprising forms of 5-azacytidine” (Pharmion LLC, priority 2003, dated 2013)
